The text below walks through data of patent publication US12665203B2, “Organo-metallic analytes for nonaqueous redox flow batteries” (The Regents of the University of California, priority 2020, dated 2026).

The conditions of series [1]: symmetric NRFB, cited from earlier work.
Series [2] can be described thus: Charging/discharging, symmetric NRFB H-cell, glass frit separator. To be noted: after three weeks of charging/discharging. As to the method:
Complex 2b was tested in both symmetric and asymmetric NRFB configurations and in both cases, an anion exchange membrane (AEM), and a glass frit as separator between the working electrode and counter electrode compartments were trialed. […] A current of 0.2 mA for the charge and 0.2 mA for the discharge were chosen as described below. Two consecutive plateaus are observed for each charging and discharging process, indicative of two electron transfer processes (FIGS. 12A-B and 13).
The first plateau at −0.97 V is determined by the oxidation of 2b^− to 2b in the cathodic compartment, and the concurrent reduction of 2b^− to 2b^2− in the anodic compartment. The second plateau at −0.21 V is determined by the oxidation of 2b to 2b^+ in the cathodic compartment, with concurrent reduction of 2b^2− to 2b^3− in the anodic compartment. Upon discharge, the reduction of 2b^+ to 2b and 2b to 2b^− in the cathodic compartment results in a small potential drop, with discharging plateaus of −0.98 and −0.24 V, respectively.
Charge-discharge studies were performed inside of a glovebox under an inert atmosphere using a CH Instruments Electrochemical Analyzer Model 1400. The custom H-cell was designed by Adams and Chittenden (FIGS. 21A-B and 22) with compartments separated by an AMI-7001S Anion exchange membrane (Membrane International Inc.) or glass frit. […]

A short description of series [3]: Cyclic voltammetry: redox potentials, diffusion coefficients, electron-transfer rate constants. Format: physicochemical.
The nature of series [4]: Charging/discharging, asymmetric H-cell, anion exchange membrane separator. As to the method:
Complex 2b was also tested as an analyte in an asymmetric cell configuration because this allowed us to achieve a cell design where up to four electrons are stored during each charge and discharge cycle. Using an AEM as separator, potentials and currents were initially chosen to maximize the energy density of the cell: storing 4 electrons in the battery. Over 10 cycles and 45 h, a Coulombic efficiency of 98% was observed (FIGS. 17A-C). […] An asymmetric cell with 2b functioning as a four-electron analyte could be revisited as AEM technology is refined.
Charge-discharge studies were performed inside of a glovebox under an inert atmosphere using a CH Instruments Electrochemical Analyzer Model 1400. The custom H-cell was designed by Adams and Chittenden (FIGS. 21A-B and 22) with compartments separated by an AMI-7001S Anion exchange membrane (Membrane International Inc.) or glass frit. If a membrane was used, it was soaked in 0.5 M nBu4NBF4MeCN electrolyte solution for 48 h prior to use. […] In the asymmetric studies, the counter compartment contained only 3.5 mL 0.5 M nBu4NBF4MeCN electrolyte solution, and an isomolded graphite rod counter electrode. […]

A short description of series [5]: Cyclic voltammetry: redox potentials, diffusion coefficients, electron-transfer rate constants. To be noted: for D0: calculated using eq 2 (Randles-Sevcik); for D0 / k0: GC electrode; for k0: calculated using eq 4 (Nicholson method). Format: physicochemical. The protocol: These redox events correspond to the 2b^+/2b couple at +0.08 V, the 2b/2b^− couple at −0.20 V, the 2b^−/2b^2− couple at −0.90 V, and the 2b^2−/2b^3− couple at −1.38 V vs SCE.
The mass transport and electrokinetics of 2b were also evaluated because a RFB analyte must have fast diffusion kinetics (D) and heterogeneous electron-transfer rate (k0) to have a high rate capability. Roughly, k0 of 10^−5 cm/s is considered a minimum requirement, and this minimum requirement is met by most of the recently studied NRFB analytes. The rate is also dependent on the electrode material, and is generally orders of magnitude higher when using Hg, Pt, or Au electrodes. For this reason, kinetic parameters were probed using a glass carbon (GC) button electrode. CV's were recorded of 2b at varying scan rates, and the D values were determined by plotting the current density versus the square root of the scan rate (FIGS. 6A-C). From the slope of the linear fit of this line and the Randles-Sevcik equation (see equations below), D for each redox couple was obtained (eq. 2). Plots of the inverse of the square root of the scan rate versus the transfer parameter (ψ), extracted from the peak to peak separation (ΔEp), were also constructed, so that k0 could be calculated using the Nicholson method (TABLE 5, eq 3-4). For each redox couple D is on the order of 10^−6 cm^2/s, and k0 is on the order of 10^−3 cm/s (TABLE 5).
All potentials are referenced to the SCE couple, and ferrocene was used as an external standard where the E/of ferrocene/ferrocenium is +0.40 V vs. SCE in 0.1 M Bu4NPF6MeCN. Bu4NPF6 was recrystallized from ethanol and placed under vacuum for 72 hours before electrolyte solutions were made. Electrolyte solutions were stored over 3 Å molecular sieves for at least 48 hours before use. Sieves were activated by heating under vacuum at 270° C. for at least 72 hours. UV-Vis spectra were obtained using a 1 cm cuvette using an Agilent 8453 UV-vis spectrophotometer.
The diffusion coefficients for each redox couple were determined by first plotting CV's of 2b at varying scan rates (0.2-8 V/s) (FIG. 10). The diffusion coefficients were then determined from the slope of the peak current density (jp) versus the square root of the scan rate (υ^1/2):
[…], transfer parameter (ψ) was calculated by obtaining the peak to peak separation of each redox couple (ΔEp), at varying scan rates (0.2-8 V/s) (FIG. 10):
[formula] The electron transfer rate constant (k0) was then extracted from the slope of a plot of versus υ^1/2 (FIG. 10):
[formula] where n is the number of electrons transferred, F is the Faraday constant (96485 Cmol^−1), D is the averaged diffusion coefficient for the oxidation and reduction reaction (DO and DR) (cm^2/s), υ is the scan rate (V/s), R is the ideal gas constant (8.314 J/mol-K) and T is the temperature (K). Calculation 4.

A short description of series [6]: Working electrode screen, extended cycling. To be noted: GC electrodes, 100 cycles. The source says: Potential working electrodes for the NRFB cell tests were also screened. GC, reticulated vitreous carbon (RVC, 20, 80 and 100 PPI), graphite rods, and carbon felt which are all commonly employed as working electrodes in NRFB applications were examined.

Like-named read-outs stand apart in the source and are kept apart here.

Consider `COCCOCCOCCNc1ccc(NCCOCCOCCOC)c2c1C(=O)c1ccccc1C2=O` [(Me-TEG)2DAAQ], for which the Cactive in series [1] (solvent DME) is 1000 mM.
With `C1=Cc2nc1c(-c1ccccc1)c1ccc([nH]1)c(-c1ccccc1)c1nc(c(-c3ccccc3)c3ccc([nH]3)c2-c2ccccc2)C=C1` [H2TPP], in series [1] (solvent CH2Cl2), the Cactive is 10 mM.
With [(I2P^−)2Al][OTf] [2b], in series [2], the degradation of analyte result was “Partial degradation”. Moreover, in series [3] (CV, 0.5 M Bu4NBF4 MeCN), the “redox potential, 2b/2b^− couple” value is given as −0.20 V vs SCE; the “redox potential, 2b^2−/2b^3− couple” value is given as −1.38 V vs SCE; the “redox potential, 2b^+/2b couple” value is on record as “+0.08 V vs SCE”; the “redox potential, 2b^−/2b^2− couple” value is recorded as −0.90 V vs SCE. Besides, in series [3] (couple 2b^2+/1+), the E1/2 is on record as 0.06 V vs SCE. Further, the “degradation of the analyte” value in series [4] (asymmetric NRFB configuration, multiple cycles, separator not stated) is reported as “no degradation of the analyte”. Moreover, the “decomposition of the analyte” value in series [4] (asymmetric cell, AEM, after 45 h) is “Decomposition of the analyte was observed”. Also, in series [5] (couple 2b^0/1−), the E1/2 is recorded as −1.08 V vs SCE, the D0 is on record as 6.3 (5.5) 10^−6 cm^2/s and the k0 was 13 ± 2.7 × 10^−3 cm/s. In series [5] (couple 2b^1+/0), the E1/2 is −0.30 V vs SCE, the D0 is listed as 5.1 (4.9) 10^−6 cm^2/s and the k0 is given as 8.9 ± 1.2 × 10^−3 cm/s. In series [5] (couple 2b^1−/2−), the E1/2 is on record as −1.51 V vs SCE, the D0 is reported as 9.9 (4.6) 10^−6 cm^2/s and the k0 was 10 ± 2.1 × 10^−3 cm/s. In series [5] (couple 2b^2+/1+), the D0 was 4.7 (6.8) 10^−6 cm^2/s and the k0 was 8.1 ± 1.7 × 10^−3 cm/s. Moreover, in series [5] (each redox couple), the “D, order of magnitude” value is listed as ~10^−6 cm^2/s and the “k0, order of magnitude” value was ~10^−3 cm/s. Also, the “stability of analyte remaining in solution” value in series [6] is “stable to extended cycling in solution”.
[bpy(COOMe)2]3Cr: the Cactive in series [1] (solvent MeCN) was 210 mM.
With phthalocyanine Mn-nitride [PcMnN], the Cactive in series [1] (solvent MeCN) is 1 mM.
